In paper PMC4063723, “Mechanisms of Pyrethroid Resistance in the Dengue Mosquito Vector, Aedes aegypti: Target Site Insensitivity, Penetration, and Metabolism” (PLoS Neglected Tropical Diseases, 2014):
Numbering of substitutions follows the chain as printed.

Experiments:
Assay in all cases: HPTLC autoradiography of metabolites, insect-cell microsomes
Format in all cases: biochemical
Conditions in all cases: NADPH, pH 7.5, 25 C, co-expressed reductase and b5; labelled compound; product 4'-HO-permethrin
CYP9M6v1 = target: T1, CYP9M6v1 (Aedes aegypti, UniProt X5I1U9)
T1 construct: full-length cDNA from SP strain (533 residues), baculovirus/Sf9 (expressSF+) microsomes, co-expressed with A. aegypti P450 reductase and cytochrome b5; with NADPH--cytochrome P450 reductase; Cytochrome b5
T1 sequence (X5I1U9 1-533): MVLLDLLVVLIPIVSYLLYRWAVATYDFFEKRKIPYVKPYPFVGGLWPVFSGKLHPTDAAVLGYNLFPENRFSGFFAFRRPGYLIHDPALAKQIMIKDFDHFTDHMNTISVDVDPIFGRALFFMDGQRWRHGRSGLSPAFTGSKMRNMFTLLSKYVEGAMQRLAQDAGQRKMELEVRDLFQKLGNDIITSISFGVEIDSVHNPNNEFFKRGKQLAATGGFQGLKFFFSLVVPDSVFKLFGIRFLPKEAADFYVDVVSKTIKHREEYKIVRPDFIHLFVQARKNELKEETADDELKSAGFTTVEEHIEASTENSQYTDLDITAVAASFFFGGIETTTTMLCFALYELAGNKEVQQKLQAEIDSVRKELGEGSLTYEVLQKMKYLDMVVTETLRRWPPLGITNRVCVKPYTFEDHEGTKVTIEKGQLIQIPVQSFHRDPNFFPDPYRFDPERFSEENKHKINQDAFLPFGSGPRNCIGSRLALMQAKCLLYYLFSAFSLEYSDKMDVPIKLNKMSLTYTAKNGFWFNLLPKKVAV

CYP9M6v2 = target: T2, CYP9M6v2 (Aedes aegypti, UniProt X5HYQ8)
T2 construct: full-length cDNA from SP strain (533 residues), baculovirus/Sf9 (expressSF+) microsomes, co-expressed with A. aegypti P450 reductase and cytochrome b5; with NADPH--cytochrome P450 reductase; Cytochrome b5
T2 sequence (X5HYQ8 1-533): T1 sequence (X5I1U9 1-533) with R170G, V176I, G348E, G370D, V376M, L527V, K530R

CYP6BB2 = target: T3, CYP6BB2 (Aedes aegypti, UniProt Q16F58)
T3 construct: gene 5565578; full-length cDNA from SP strain, baculovirus/Sf9 (expressSF+) microsomes, co-expressed with A. aegypti P450 reductase and cytochrome b5; with NADPH--cytochrome P450 reductase; Cytochrome b5
T3 sequence (Q16F58 1-507): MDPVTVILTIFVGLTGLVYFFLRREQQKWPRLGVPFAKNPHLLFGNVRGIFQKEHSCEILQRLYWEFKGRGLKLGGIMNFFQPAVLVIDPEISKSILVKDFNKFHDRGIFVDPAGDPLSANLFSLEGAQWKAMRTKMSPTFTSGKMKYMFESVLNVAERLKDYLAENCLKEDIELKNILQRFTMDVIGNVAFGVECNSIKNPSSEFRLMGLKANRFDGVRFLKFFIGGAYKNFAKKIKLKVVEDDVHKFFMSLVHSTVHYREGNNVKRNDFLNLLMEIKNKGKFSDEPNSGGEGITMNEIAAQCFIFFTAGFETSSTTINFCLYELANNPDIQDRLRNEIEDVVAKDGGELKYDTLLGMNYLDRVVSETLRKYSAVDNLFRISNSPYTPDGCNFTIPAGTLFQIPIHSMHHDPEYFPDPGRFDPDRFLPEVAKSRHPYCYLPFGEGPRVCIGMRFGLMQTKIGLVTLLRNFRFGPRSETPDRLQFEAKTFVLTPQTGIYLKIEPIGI

Structure (SMILES): CC1(C)C(C=C(Cl)Cl)C1C(=O)OCc1cccc(Oc2ccccc2)c1 (stereo not drawn) [[14C]-(1RS)-trans-permethrin]
- HPTLC autoradiography of metabolites, insect-cell microsomes (CYP9M6v1): Both CYP9M6v1 and CYP9M6v2 demonstrated relatively low but consistent permethrin metabolism
- HPTLC autoradiography of metabolites, insect-cell microsomes (CYP9M6v2): Both CYP9M6v1 and CYP9M6v2 demonstrated relatively low but consistent permethrin metabolism
- HPTLC autoradiography of metabolites, insect-cell microsomes (CYP6BB2): CYP6BB2 exhibited strong metabolic activity for permethrin
